From patent publication US20250042881A1, “CCR6 RECEPTOR MODULATORS” (Idorsia Pharmaceuticals Ltd, priority 2021, published 2025)

Target: T1, human CCR6 (Homo sapiens, UniProt P51684)
T1 construct: expressed in transfected cells; host or cells: HEK-293
T1 sequence (P51684 1-374): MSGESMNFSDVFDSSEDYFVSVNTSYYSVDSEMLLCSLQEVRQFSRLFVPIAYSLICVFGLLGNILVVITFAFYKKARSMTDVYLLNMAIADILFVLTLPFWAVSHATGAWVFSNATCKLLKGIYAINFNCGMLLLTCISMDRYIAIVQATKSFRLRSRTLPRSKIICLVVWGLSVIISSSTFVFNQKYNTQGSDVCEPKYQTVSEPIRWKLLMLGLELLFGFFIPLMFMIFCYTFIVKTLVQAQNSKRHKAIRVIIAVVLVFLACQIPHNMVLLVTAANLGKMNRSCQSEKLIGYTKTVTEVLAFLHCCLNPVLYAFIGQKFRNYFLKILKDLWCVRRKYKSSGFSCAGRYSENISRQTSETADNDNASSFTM
Experiment: FLIPR assay: inhibition of CCL20-induced calcium signal in HEK-293 cells expressing human CCR6
Format: cell-based
Settings: engineered HEK-293 cells expressing human CCR6; agonist CCL20 10 nM; 30 min preincubation; Fluo-8-AM; mean values if determined several times
Method: FLIPR assay: The bioactivity of compounds is tested in a fluorometric imaging plate reader (FLIPR: Molecular Devices) using engineered HEK-293 cells expressing the human CCR6 (GenBank: AY242126). Frozen cells are plated on Poly-L-Lysine precoated 384-well plates 2 days prior to bioassay in DMEM medium supplemented with 10% FCS and 1% Penicillin-Streptomycin. At the day of bioassay, cell supernatant is discarded and cells are dye loaded for 30 minutes at room temperature in the dark with Fluo-8-AM (Focus Biomolecules) in Hanks Balanced Salt Solution (Gibco), buffered with 20 mM Hepes at pH 6.75 and supplemented with 0.05% BSA. This buffer, but lacking the dye, is also used for washing and compound dilution steps (assay buffer). Cells are washed free of excess dye with a wash-station (Biotek), leaving 40 microliter of assay buffer at the end. Cells were incubated for 15 minutes at room temperature in the dark, before adding compounds. Stock solutions of test compounds are made up at a concentration of 10 mM in DMSO, and serially diluted first in DMSO and then transferred in assay buffer to concentrations required for inhibition dose response curves. After a 45 minute incubation period in assay buffer at room temperature, 10 microliters of each compound dilution are transferred from a compound plate to the plate containing the recombinant cells in the FLIPR instrument according to the manufacturer's instructions. After cells and compounds were preincubated for 30 minutes at room temperature in the dark, 10 microliter agonist CCL20 (Peprotech) at a final concentration of 10 nM is added, again using the FLIPR instrument. Changes in fluorescence are monitored before and after addition of the test compounds and agonist. Emission peak values above base level after CCL20 addition are exported after base line subtraction. The calculated IC50 values may fluctuate depending on the daily assay performance. Fluctuations of this kind are known to those skilled in the art. In the case where IC50 values have been determined several times for the same compound, mean values are given.

| IC50 [nM] | SMILES |
| --- | --- |
| 1050 | CN1CC(C)([C@](O)(c2ccc(Br)cc2)c2cncc(-c3nc(C4CCOCC4)n(C4CC4)n3)c2)C1 [Example 1, (R)-(4-Bromo-phenyl)-{5-[1-cyclopropyl-5-(tetrahydro-pyran-4-yl)-1H-[1,2,4]triazol-3-yl]-pyridin-3-yl}-(1,3-dimethyl-azetidin-3-yl)-methanol] |
| 81.1 | CN1CC(C)([C@](O)(c2ccc(C(C)(C)C)cc2)c2cncc(-c3nc(C4CCOCC4)n(C4CC4)n3)c2)C1 [Example 2, (R)-(4-tert-Butyl-phenyl)-{5-[1-cyclopropyl-5-(tetrahydro-pyran-4-yl)-1H-[1,2,4]triazol-3-yl]-pyridin-3-yl}-(1,3-dimethyl-azetidin-3-yl)-methanol] |
| 49.8 | CN1CC(C)([C@](O)(c2ccc(C3(C(F)(F)F)CC3)cc2)c2cncc(-c3nc(C4CCOCC4)n(C4CC4)n3)c2)C1 [Example 3, (R)-{5-[1-Cyclopropyl-5-(tetrahydro-pyran-4-yl)-1H-[1,2,4]triazol-3-yl]-pyridin-3-yl}-(1,3-dimethyl-azetidin-3-yl)-[4-(1-trifluoromethyl-cyclopropyl)-phenyl]-methanol] |
| 114 | CN1CC(C)([C@](O)(c2ccc(OC(F)(F)F)cc2)c2cncc(-c3nc(C4CCOCC4)n(C4CC4)n3)c2)C1 [Example 4, (R)-{5-[1-Cyclopropyl-5-(tetrahydro-pyran-4-yl)-1H-[1,2,4]triazol-3-yl]-pyridin-3-yl}-(1,3-dimethyl-azetidin-3-yl)-(4-trifluoromethoxy-phenyl)-methanol] |
| 182 | CN1CC(C)([C@](O)(c2ccc(CC(F)(F)F)cc2)c2cncc(-c3nc(C4CCOCC4)n(C4CC4)n3)c2)C1 [Example 5, (R)-{5-[1-Cyclopropyl-5-(tetrahydro-pyran-4-yl)-1H-[1,2,4]triazol-3-yl]-pyridin-3-yl}-(1,3-dimethyl-azetidin-3-yl)-[4-(2,2,2-trifluoro-ethyl)-phenyl]-methanol] |
| 124 | CCc1ccc([C@](O)(c2cncc(-c3nc(C4CCOCC4)n(C4CC4)n3)c2)C2(C)CN(C)C2)cc1 [Example 6, (R)-{5-[1-Cyclopropyl-5-(tetrahydro-pyran-4-yl)-1H-[1,2,4]triazol-3-yl]-pyridin-3-yl}-(1,3-dimethyl-azetidin-3-yl)-(4-ethyl-phenyl)-methanol] |
| 44.4 | CCCc1ccc([C@](O)(c2cncc(-c3nc(C4CCOCC4)n(C4CC4)n3)c2)C2(C)CN(C)C2)cc1 [Example 7, (R)-{5-[1-Cyclopropyl-5-(tetrahydro-pyran-4-yl)-1H-[1,2,4]triazol-3-yl]-pyridin-3-yl}-(1,3-dimethyl-azetidin-3-yl)-(4-propyl-phenyl)-methanol] |
| 98.5 | CC(C)c1ccc([C@](O)(c2cncc(-c3nc([C@H]4CC[C@H](O)CC4)n(C4CC4)n3)c2)C2(C)CN(C)C2)cc1 [Example 8, trans-4-(2-Cyclopropyl-5-{5-[(R)-(1,3-dimethyl-azetidin-3-yl)-hydroxy-(4-isopropyl-phenyl)-methyl]-pyridin-3-yl}-2H-[1,2,4]triazol-3-yl)-cyclohexanol] |
| 22.2 | CC(C)c1ccc([C@](O)(c2cncc(-c3nc([C@@](C)(O)C(F)(F)F)n(C4CC4)n3)c2)C2(C)CN(C)C2)cc1 [Example 9, (R)-2-(2-Cyclopropyl-5-{5-[(R)-(1,3-dimethyl-azetidin-3-yl)-hydroxy-(4-isopropyl-phenyl)-methyl]-pyridin-3-yl}-2H-[1,2,4]triazol-3-yl)-1,1,1-trifluoro-propan-2-ol] |
| 43.9 | COC(=O)C12CCC(c3nc(-c4cncc([C@@](O)(c5ccc(C(C)C)cc5)C5(C)CN(C)C5)c4)nn3C3CC3)(CC1)CC2 [Example 10, 4-(2-Cyclopropyl-5-{5-[(R)-(1,3-dimethyl-azetidin-3-yl)-hydroxy-(4-isopropyl-phenyl)-methyl]-pyridin-3-yl}-2H-[1,2,4]triazol-3-yl)-bicyclo[2.2.2]octane-1-carboxylic acid methyl ester] |
| 519 | CNC(C)(C)c1nc(-c2cncc([C@@](O)(c3ccc(C(C)C)cc3)C3(C)CN(C)C3)c2)nn1C1CC1 [Example 11, (R)-{5-[1-Cyclopropyl-5-(1-methyl-1-methylamino-ethyl)-1H-[1,2,4]triazol-3-yl]-pyridin-3-yl}-(1,3-dimethyl-azetidin-3-yl)-(4-isopropyl-phenyl)-methanol] |
| 114 | CC(C)c1ccc([C@](O)(c2cncc(-c3nc(CC4(O)CCC4)n(C4CC4)n3)c2)C2(C)CN(C)C2)cc1 [Example 12, 1-(2-Cyclopropyl-5-{5-[(R)-(1,3-dimethyl-azetidin-3-yl)-hydroxy-(4-isopropyl-phenyl)-methyl]-pyridin-3-yl}-2H-[1,2,4]triazol-3-ylmethyl)-cyclobutanol] |
| 149 | CC(C)c1ccc([C@](O)(c2cncc(-c3nc(C45CCC(C(=O)O)(CC4)CC5)n(C4CC4)n3)c2)C2(C)CN(C)C2)cc1 [Example 13, 4-(2-Cyclopropyl-5-{5-[(R)-(1,3-dimethyl-azetidin-3-yl)-hydroxy-(4-isopropyl-phenyl)-methyl]-pyridin-3-yl}-2H-[1,2,4]triazol-3-yl)-bicyclo[2.2.2]octane-1-carboxylic acid] |
| 118 | CC(C)c1ccc([C@](O)(c2cncc(-c3nc(C4CCOCC4)n(C4CC4)n3)c2)C2(C)CN(C)C2)cc1 [Example 14, (R)-{5-[1-Cyclopropyl-5-(tetrahydro-pyran-4-yl)-1H-[1,2,4]triazol-3-yl]-pyridin-3-yl}-(1,3-dimethyl-azetidin-3-yl)-(4-isopropyl-phenyl)-methanol] |
| 16.8 | CC(C)c1ccc([C@](O)(c2cncc(-c3nc(C4CCOCC4)n(C4CCCCC4)n3)c2)C2(C)CN(C)C2)cc1 [Example 15, (R)-{5-[1-Cyclohexyl-5-(tetrahydro-pyran-4-yl)-1H-[1,2,4]triazol-3-yl]-pyridin-3-yl}-(1,3-dimethyl-azetidin-3-yl)-(4-isopropyl-phenyl)-methanol] |
| 221 | CC(C)c1ccc([C@](O)(c2cncc(-c3nc(C4CCOCC4)n(C)n3)c2)C2(C)CN(C)C2)cc1 [Example 16, (R)-(1,3-Dimethyl-azetidin-3-yl)-(4-isopropyl-phenyl)-{5-[1-methyl-5-(tetrahydro-pyran-4-yl)-1H-[1,2,4]triazol-3-yl]-pyridin-3-yl}-methanol] |
| 509 | CC(C)c1ccc([C@](O)(c2cncc(-c3nc(C4CCOCC4)n(CCO)n3)c2)C2(C)CN(C)C2)cc1 [Example 17, 2-[3-{5-[(R)-(1,3-Dimethyl-azetidin-3-yl)-hydroxy-(4-isopropyl-phenyl)-methyl]-pyridin-3-yl}-5-(tetrahydro-pyran-4-yl)-[1,2,4]triazol-1-yl]-ethanol] |
| 166 | CCn1nc(-c2cncc([C@@](O)(c3ccc(C(C)C)cc3)C3(C)CN(C)C3)c2)nc1C1CCOCC1 [Example 18, (R)-(1,3-Dimethyl-azetidin-3-yl)-{5-[1-ethyl-5-(tetrahydro-pyran-4-yl)-1H-[1,2,4]triazol-3-yl]-pyridin-3-yl}-(4-isopropyl-phenyl)-methanol] |
| 94.8 | CC(C)c1ccc([C@](O)(c2cncc(-c3nc(C4CCOCC4)n(C(C)C)n3)c2)C2(C)CN(C)C2)cc1 [Example 19, (R)-(1,3-Dimethyl-azetidin-3-yl)-(4-isopropyl-phenyl)-{5-[1-isopropyl-5-(tetrahydro-pyran-4-yl)-1H-[1,2,4]triazol-3-yl]-pyridin-3-yl}-methanol] |
| 37.3 | CC(C)c1ccc([C@](O)(c2cncc(-c3nc(C4CCOCC4)n(C4CCCC4)n3)c2)C2(C)CN(C)C2)cc1 [Example 20, (R)-{5-[1-Cyclopentyl-5-(tetrahydro-pyran-4-yl)-1H-[1,2,4]triazol-3-yl]-pyridin-3-yl}-(1,3-dimethyl-azetidin-3-yl)-(4-isopropyl-phenyl)-methanol] |
| 39.9 | CC(C)c1ccc([C@](O)(c2cncc(-c3nc(C4CCOCC4)n(C(C)(C)C)n3)c2)C2(C)CN(C)C2)cc1 [Example 21, (R)-{5-[1-tert-Butyl-5-(tetrahydro-pyran-4-yl)-1H-[1,2,4]triazol-3-yl]-pyridin-3-yl}-(1,3-dimethyl-azetidin-3-yl)-(4-isopropyl-phenyl)-methanol] |
